Experimental data reported in ChEMBL document CHEMBL1143809, “New bis-N9-(methylphenylmethyl)purine derivatives: synthesis and antitumor activity” (2007).

Experiments:
Assay type in all cases: functional
BT-549 = test: Growth inhibition of human BT549 cells after 48 hrs by SRB protein assay; conditions: BT-549, 48 h
OVCAR-5 = test: Growth inhibition of human OVCAR5 cells after 48 hrs by SRB protein assay; conditions: OVCAR-5, 48 h
RXF 393 = test: Growth inhibition of human RXF393 cells after 48 hrs by SRB protein assay; conditions: RXF 393, 48 h
HOP-92 = test: Growth inhibition of human HOP92 cells after 48 hrs by SRB protein assay; conditions: HOP-92, 48 h
OVCAR-8 = test: Growth inhibition of human OVCAR8 cells after 48 hrs by SRB protein assay; conditions: OVCAR-8, 48 h
KM12 = test: Growth inhibition of human KM12 cells after 48 hrs by SRB protein assay; conditions: KM12, 48 h
A498 = test: Growth inhibition of human A498 cells after 48 hrs by SRB protein assay; conditions: A498, 48 h
T47D = test: Growth inhibition of human T47D cells after 48 hrs by SRB protein assay
SK-MEL-5 = test: Growth inhibition of human SK-MEL-5 cells after 48 hrs by SRB protein assay; conditions: SK-MEL-5, 48 h
TK-10 = test: Growth inhibition of human TK10 cells after 48 hrs by SRB protein assay; conditions: TK-10, 48 h
HOP-62 = test: Growth inhibition of human HOP62 cells after 48 hrs by SRB protein assay; conditions: HOP-62, 48 h
[1] = Growth inhibition of human NCL-H23 cells after 48 hrs by SRB protein assay; conditions: NCL-H23, 48 h
SF-539 = test: Growth inhibition of human SF539 cells after 48 hrs by SRB protein assay; conditions: SF-539, 48 h
SW-620 = test: Growth inhibition of human SW620 cells after 48 hrs by SRB protein assay; conditions: SW-620, 48 h
HCT-15 = test: Growth inhibition of human HCT15 cells after 48 hrs by SRB protein assay; conditions: HCT-15, 48 h
MCF7 = test: Anticancer activity against human MCF7 cells assessed as growth at 100 uM after 48 hrs by SRB protein assay relative to control; conditions: MCF7, 48 h, read-out: Activity
M14 = test: Growth inhibition of human M14 cells after 48 hrs by SRB protein assay; conditions: M14, 48 h
K562 = test: Growth inhibition of human K562 cells after 48 hrs by SRB protein assay; conditions: K562, 48 h
Hs-578T = test: Growth inhibition of human HS578T cells after 48 hrs by SRB protein assay
NCI-H460 = test: Growth inhibition of human NCL-H460 cells after 48 hrs by SRB protein assay; conditions: NCI-H460, 48 h
MOLT-4 = test: Growth inhibition of human MOLT4 cells after 48 hrs by SRB protein assay; conditions: MOLT-4, 48 h
DU-145 = test: Growth inhibition of human DU145 cells after 48 hrs by SRB protein assay; conditions: DU-145, 48 h
EKVX = test: Growth inhibition of human EKVX cells after 48 hrs by SRB protein assay
COLO 205 = test: Growth inhibition of human COLO205 cells after 48 hrs by SRB protein assay; conditions: COLO 205, 48 h
SK-MEL-28 = test: Growth inhibition of human SK-MEL-28 cells after 48 hrs by SRB protein assay; conditions: SK-MEL-28, 48 h
SNB-75 = test: Growth inhibition of human SNB75 cells after 48 hrs by SRB protein assay; conditions: SNB-75, 48 h
UACC-257 = test: Growth inhibition of human UACC257 cells after 48 hrs by SRB protein assay; conditions: UACC-257, 48 h
UACC-62 = test: Growth inhibition of human UACC62 cells after 48 hrs by SRB protein assay; conditions: UACC-62, 48 h
PC-3 = test: Growth inhibition of human PC3 cells after 48 hrs by SRB protein assay; conditions: PC-3, 48 h
A549 = test: Growth inhibition of human A549 cells after 48 hrs by SRB protein assay; conditions: A549, 48 h
RPMI-8226 = test: Growth inhibition of human RPMI8226 cells after 48 hrs by SRB protein assay; conditions: RPMI-8226, 48 h
[2] = Growth inhibition of human NCL-H226 cells after 48 hrs by SRB protein assay; conditions: NCL-H226, 48 h
SF-268 = test: Anticancer activity against human SF268 cells assessed as growth at 100 uM after 48 hrs by SRB protein assay relative to control; conditions: SF-268, 48 h, read-out: Activity
[3] = read-out: LC50 (the source's name)

## Clc1nc(Cl)c2ncn(Cc3ccc(Cn4cnc5c(Cl)nc(Cl)nc54)cc3)c2n1
BT-549
  GI50: < 0.01 µM
  TGI: 19.1 µM
BT-549; [3]
  CC50: 43.6 µM
OVCAR-5
  TGI: 26.3 µM
OVCAR-5; [3]
  CC50: 51.3 µM
RXF 393
  GI50: < 0.01 µM
RXF 393; [3]
  CC50: 20.9 µM
HOP-92
  LC50: 57.5 µM
  TGI: 26.3 µM
OVCAR-8
  GI50: 3.02 µM
  LC50: 49 µM
  TGI: 8.13 µM
KM12
  GI50: 14.1 µM
  LC50 (concentration killing 50% of cells): 52.5 µM
  TGI: 27.5 µM
A498
  TGI: 22.9 µM
A498; [3]
  CC50: 47.9 µM
T47D
  GI50: 1.62 µM
  LC50: 42.6 µM
  TGI: 13.5 µM
SK-MEL-5
  GI50: 10.7 µM
  LC50: 47.9 µM
  TGI: 22.9 µM
TK-10
  GI50: 13.2 µM
  LC50 (50% lethal concentration): 51.3 µM
  TGI: 26.3 µM
HOP-62
  LC50: 51.3 µM
  TGI: 26.3 µM
[1]
  GI50: 13.8 µM
  LC50: 51.3 µM
  TGI: 26.9 µM
SF-539
  LC50: 37.1 µM
  TGI: 13.8 µM
SW-620
  GI50: < 0.01 µM
  TGI: 2.63 µM
SW-620; [3]
  CC50: 8.31 µM
HCT-15
  GI50: 13.2 µM
  LC50: 51.3 µM
  TGI: 25.7 µM
MCF7
  growth at 100 µM: 0%
M14
  LC50: 52.5 µM
  TGI: 27.5 µM
K562
  GI50: 2.88 µM
  TGI: 16.6 µM
K562; [3]
  CC50: 40.7 µM
Hs-578T
  GI50: < 0.01 µM
  LC50 (concentration killing 50% of cells): 43.6 µM
  TGI: 16.2 µM
NCI-H460
  GI50: 14.1 µM
  TGI: 26.9 µM
NCI-H460; [3]
  CC50: 52.5 µM
MOLT-4
  GI50: 7.94 µM
  LC50: 45.7 µM
  TGI: 20.9 µM
DU-145
  GI50: < 0.01 µM
  TGI: 4.16 µM
DU-145; [3]
  CC50: 26.3 µM
EKVX
  GI50: < 0.01 µM
  LC50: 44.7 µM
  TGI: 19.9 µM
COLO 205
  LC50: 41.7 µM
  TGI: 17.4 µM
SK-MEL-28
  GI50: < 0.01 µM
  LC50: 42.6 µM
  TGI: 18.2 µM
SNB-75
  GI50: < 0.01 µM
  TGI: 17 µM
SNB-75; [3]
  CC50: 41.7 µM
UACC-257
  TGI: 25.1 µM
UACC-257; [3]
  CC50: 50.1 µM
UACC-62
  GI50: 13.8 µM
  LC50 (concentration killing 50% of cells): 51.3 µM
  TGI: 26.9 µM
PC-3
  GI50: 12.9 µM
  TGI: 25.7 µM
PC-3; [3]
  CC50: 50.1 µM
A549
  LC50: 50.1 µM
  TGI: 25.1 µM
RPMI-8226
  GI50: 6.45 µM
  TGI: 25.1 µM
RPMI-8226; [3]
  CC50: 75.9 µM
[2]
  GI50: 17 µM
  LC50: 93.3 µM
  TGI: 39.8 µM
SF-268
  growth at 100 µM: 58%
